From ChEMBL document CHEMBL1144154, “7-[1H-Indol-2-yl]-2,3-dihydro-isoindol-1-ones as dual Aurora-A/VEGF-R2 kinase inhibitors: design, synthesis, and biological activity” (Bioorg Med Chem Lett, 2008)
Calls of active or inactive are those of the source. The rule behind the calls is not given here.

Key:
Aurora kinase A = target: T1, Aurora kinase A (Homo sapiens, UniProt O14965); experiment: Inhibition of Aurora A
T1 sequence (O14965 whole entry): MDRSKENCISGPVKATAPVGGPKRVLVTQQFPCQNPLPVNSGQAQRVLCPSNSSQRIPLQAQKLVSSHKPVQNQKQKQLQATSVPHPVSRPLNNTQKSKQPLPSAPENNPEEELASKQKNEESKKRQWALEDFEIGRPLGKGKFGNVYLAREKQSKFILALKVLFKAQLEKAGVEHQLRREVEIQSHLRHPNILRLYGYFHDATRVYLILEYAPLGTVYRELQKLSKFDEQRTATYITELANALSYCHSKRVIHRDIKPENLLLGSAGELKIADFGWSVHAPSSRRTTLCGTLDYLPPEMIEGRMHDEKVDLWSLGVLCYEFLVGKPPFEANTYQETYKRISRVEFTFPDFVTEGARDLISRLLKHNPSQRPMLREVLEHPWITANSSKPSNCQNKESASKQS

[1] = target: T2, Vascular endothelial growth factor receptor 2 (Homo sapiens, UniProt P35968); experiment: Inhibition of VEGFR2
T2 sequence (P35968 whole entry): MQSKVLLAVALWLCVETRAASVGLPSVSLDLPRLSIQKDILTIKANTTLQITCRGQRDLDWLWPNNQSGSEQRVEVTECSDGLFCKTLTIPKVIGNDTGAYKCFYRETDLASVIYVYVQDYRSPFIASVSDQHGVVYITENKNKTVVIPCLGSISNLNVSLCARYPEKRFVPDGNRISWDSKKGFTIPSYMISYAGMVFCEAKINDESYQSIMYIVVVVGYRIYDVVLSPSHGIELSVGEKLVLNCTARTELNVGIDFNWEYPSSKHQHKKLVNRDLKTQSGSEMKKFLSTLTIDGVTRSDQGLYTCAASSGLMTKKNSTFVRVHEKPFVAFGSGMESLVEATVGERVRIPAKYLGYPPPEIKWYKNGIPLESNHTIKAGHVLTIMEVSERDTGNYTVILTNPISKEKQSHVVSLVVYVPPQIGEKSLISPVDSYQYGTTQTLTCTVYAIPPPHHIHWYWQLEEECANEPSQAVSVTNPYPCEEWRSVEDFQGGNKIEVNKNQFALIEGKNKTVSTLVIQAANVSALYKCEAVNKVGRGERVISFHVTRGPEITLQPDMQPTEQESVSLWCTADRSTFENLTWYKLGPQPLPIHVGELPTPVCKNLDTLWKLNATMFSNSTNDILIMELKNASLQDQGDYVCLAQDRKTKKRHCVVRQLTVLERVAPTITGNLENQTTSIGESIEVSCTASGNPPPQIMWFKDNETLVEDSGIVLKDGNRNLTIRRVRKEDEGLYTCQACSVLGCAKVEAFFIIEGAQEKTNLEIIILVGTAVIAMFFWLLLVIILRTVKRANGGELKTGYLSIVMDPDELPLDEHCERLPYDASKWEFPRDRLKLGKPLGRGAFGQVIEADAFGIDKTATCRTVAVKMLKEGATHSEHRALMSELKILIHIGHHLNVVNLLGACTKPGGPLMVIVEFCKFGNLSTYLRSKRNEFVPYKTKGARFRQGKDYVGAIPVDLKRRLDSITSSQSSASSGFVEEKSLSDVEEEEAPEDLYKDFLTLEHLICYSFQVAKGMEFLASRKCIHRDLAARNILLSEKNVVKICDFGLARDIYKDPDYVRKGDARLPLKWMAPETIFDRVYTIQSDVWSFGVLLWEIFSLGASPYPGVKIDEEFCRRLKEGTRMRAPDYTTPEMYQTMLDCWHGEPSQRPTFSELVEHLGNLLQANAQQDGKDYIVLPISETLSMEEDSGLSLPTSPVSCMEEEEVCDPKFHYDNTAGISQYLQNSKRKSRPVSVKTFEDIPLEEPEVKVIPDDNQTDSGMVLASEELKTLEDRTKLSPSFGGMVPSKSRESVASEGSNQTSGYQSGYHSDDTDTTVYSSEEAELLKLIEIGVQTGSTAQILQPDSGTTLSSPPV

[2] = target: T3, Cyclin-dependent kinase 1 (Homo sapiens, UniProt P06493); experiment: Inhibition of CDK1 at 100 uM
Target sequence in this assay (P06493 whole entry, looked up): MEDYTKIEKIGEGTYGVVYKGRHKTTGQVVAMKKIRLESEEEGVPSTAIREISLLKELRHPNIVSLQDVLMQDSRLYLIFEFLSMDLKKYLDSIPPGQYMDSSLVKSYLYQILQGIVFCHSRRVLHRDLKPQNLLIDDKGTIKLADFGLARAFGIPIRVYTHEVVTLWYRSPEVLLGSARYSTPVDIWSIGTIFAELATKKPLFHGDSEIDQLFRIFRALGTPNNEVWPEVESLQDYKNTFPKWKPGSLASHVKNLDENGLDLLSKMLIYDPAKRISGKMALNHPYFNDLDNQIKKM

[3] = target: T3, Cyclin-dependent kinase 1; experiment: Inhibition of CDK1
Target sequence in this assay (P06493 whole entry): as the sequence (P06493 whole entry, looked up) above

[4] = target: T4, Aurora kinase A (Homo sapiens) (UniProt O14965); experiment: Inhibition of Aurora A at 100 uM
T4 sequence (whole entry): T1 sequence (O14965 whole entry)

[5] = target: T2, Vascular endothelial growth factor receptor 2; experiment: Inhibition of VEGFR2 at 0.1 uM
[6] = target: T2, Vascular endothelial growth factor receptor 2; experiment: Inhibition of VEGFR2 at 100 uM
[7] = Half life in rat at 10 mg/kg, po; type: ADME, organism-based; design: dose 10 mg/kg, route oral; details: in vivo
[8] = Drug concentration in nude mouse plasma at 10 mg/kg after 0.5 hrs; type: ADME, organism-based; design: dose 10 mg/kg
A-375 = experiment: Antitumor activity in human A375 cells […] nude mouse assessed as inhibition of tumor growth at 100 mg/kg, ip relative to control; type: functional; design: scale not given: the % may be the effect or the level left; details: route intraperitoneal
HeLa = experiment: Induction of polyploidy in human HeLa cells assessed as increase in cells with >4N DNA content at 2.5 uM after 72 hrs by FACS analysis
[9] = Drug concentration in nude mouse plasma at 10 mg/kg after 2 hrs; type: ADME, organism-based; design: dose 10 mg/kg
[10] = Oral bioavailability in rat at 10 mg/kg; type: ADME, organism-based; details: in vivo
[11] = Drug concentration in nude mouse plasma at 10 mg/kg after 4 hrs; type: ADME, organism-based; design: dose 10 mg/kg
[12] = Drug concentration in nude mouse plasma at 10 mg/kg after 1 hr; type: ADME, organism-based; design: dose 10 mg/kg
[13] = Cmax in rat at 10 mg/kg, po; type: ADME, organism-based; design: dose 10 mg/kg, route oral; details: in vivo

Row | IC50 (Aurora kinase A) | IC50 [1] | IC50 [3] | Compound | other results
1 | 21200 nM | 11300 nM | > 100000 nM | O=C1NCc2cccc(-c3cc4cc(OCc5ccccc5)ccc4[nH]3)c21 | 
2 | 100 nM | 144 nM | > 100000 nM | O=C1NCc2cccc(-c3cc4ccccc4[nH]3)c21 | 
3 | 90 nM | 119 nM | 13300 nM | O=C1NCc2cccc(-c3cc4cc(O)ccc4[nH]3)c21 | 
4 | 61 nM | 18 nM | > 100000 nM | O=C1NCc2cccc(-c3cc4cc(OCCCN5CCC(O)CC5)ccc4[nH]3)c21 | 
5 |  | 5940 nM |  | COc1ccc(NC(=O)c2cccc3c2C(=O)NC3)cc1 | inhibition [4]: 45%
6 | 205 nM | 142 nM |  | COc1ccc2[nH]c(-c3cccc4c3C(=O)NC4)nc2c1 | 
7 | 100 nM | 30 nM | > 100000 nM | O=C1NCc2cccc(-c3cc4cc(OCCCO)ccc4[nH]3)c21 | 

The remaining lines, values behind:

Row | Compound | IC50 (Aurora kinase A) | IC50 [1] | IC50 [3] | other results
8 | O=C1NCc2cccc(-c3ccc[nH]3)c21 | 338 nM | 1100 nM |  | inhibition [2]: 63%
9 | COc1ccc2[nH]c(-c3cccc4c3C(=O)NC4=O)cc2c1 |  |  |  | inhibition [4]: 30%; inhibition [5]: 35%
10 | O=C1NCc2cccc(-c3c[nH]c4ccccc34)c21 |  |  |  | inhibition [6]: 50%; inhibition [4]: 60%
11 | O=C1NCc2cccc(-c3cc4cc(OCCCN5CCCCC5)ccc4[nH]3)c21 | 179 nM | 65 nM | > 100000 nM | 
12 | O=C(O)c1cccc2c1C(=O)NC2 | > 100000 nM | > 100000 nM |  | 
13 | CCN1CCN(CCCOc2ccc3[nH]c(-c4cccc5c4C(=O)NC5)cc3c2)CC1 | 44 nM | 14 nM | > 100000 nM | 
14 | CC(C)(C)OC(=O)n1cccc1-c1cccc2c1C(=O)NC2 |  |  |  | inhibition [6]: 46%; inhibition [4]: 25%; inhibition [2]: < 10%
15 | O=C1NCc2cccc(-c3cc4cc(OCCN5CCOCC5)ccc4[nH]3)c21 | 135 nM | 74 nM | > 100000 nM | 
16 | CN1Cc2cccc(-c3cccn3C(=O)OC(C)(C)C)c2C1=O | > 100000 nM | > 100000 nM | > 100000 nM | 
17 | COC(=O)c1cccc2c1C(=O)NC2 | > 100000 nM | > 100000 nM |  | 
18 | CN1Cc2cccc(-c3ccc[nH]3)c2C1=O |  |  |  | inhibition [6]: < 10%; inhibition [4]: 37%; inhibition [2]: 24%
19 | NC(=O)c1cccc2c1C(=O)NC2 | 14300 nM | > 100000 nM |  | 
20 | O=C1NCc2cccc(-c3cc4cc(OCCN5CCCCC5)ccc4[nH]3)c21 | 200 nM | 56 nM | > 100000 nM | half-life [7]: 54 min; concentration at 0.5 h [8]: 154 ng/mL; Activity (A-375): 46%; Activity (HeLa): Active; concentration at 2 h [9]: 41 ng/mL; bioavailability [10]: 20%; concentration at 4 h [11]: 12 ng/mL; concentration at 1 h [12]: 160 ng/mL; Cmax [13]: 391 ng/mL
